Experiments:
[1] = system: T. cruzi epimastigote respiration (wild-type); experiment: T. cruzi epimastigote respiration (oxygen consumption, MitoXpress-Xtra), wild-type; assay type: cell-based; details: Trypanosoma cruzi; intact epimastigotes
Experimental: (§1) GNF7686 and cytochrome b inhibitors (0.2% DMS0 final concentration) were added to 384-well assay plates containing 20 μL of assay buffer (250 mM sucrose, 15 mM KCl, 5 mM MgCl2, 1 mM EGTA, 30 mM K2HPO4, pH 7.4) and allowed to dissolve for two hours. Meanwhile, T. cruzi epimastigotes were harvested (800 × g for 5 min at 4°C), washed twice with buffer A (10 mM Tris-HCl, pH = 7.4, 0.23 M mannitol, 0.07 M sucrose, 0.2 mM EDTA, 0.2% bovine serum albumin, 0.5 mM phenylmethanesulfonyl fluoride), and finally resuspended in buffer A at a final concentration of 150 × 10^6 epimastigotes / mL. Next, 20 μL of T. cruzi epimastigote suspension (3 x 10^6 parasites) was added to each sample well, and then 15 μL of MitoXpress-Xtra probe (Cayman Chemicals) was added (final assay volume of 60 μL). Probe phosphorescence is quenched in the presence of oxygen and is inversely proportional to the amount of oxygen present in the solution. […] The assay plate was transferred to a Gemini XPS fluorescence plate reader (Molecular Devices) and read at 3 minute intervals at excitation and emission wavelengths of 380 nm and 650 nm, respectively, for 30 minutes at 37°C. The slope for the linear portion of time course of fluorescence increase (rate of oxygen consumption) was calculated after subtraction of blank well values. […]

[2] = system: T. cruzi epimastigote respiration (GNF7686-resistant, DR); experiment: T. cruzi epimastigote respiration (oxygen consumption, MitoXpress-Xtra), GNF7686-resistant; assay type: cell-based, Trypanosoma cruzi; details: for IC50: Trypanosoma cruzi, intact epimastigotes
Experimental: GNF7686 and cytochrome b inhibitors (0.2% DMS0 final concentration) were added to 384-well assay plates containing 20 μL of assay buffer (250 mM sucrose, 15 mM KCl, 5 mM MgCl2, 1 mM EGTA, 30 mM K2HPO4, pH 7.4) and allowed to dissolve for two hours. Meanwhile, T. cruzi epimastigotes were harvested (800 × g for 5 min at 4°C), washed twice with buffer A (10 mM Tris-HCl, pH = 7.4, 0.23 M mannitol, 0.07 M sucrose, 0.2 mM EDTA, 0.2% bovine serum albumin, 0.5 mM phenylmethanesulfonyl fluoride), and finally resuspended in buffer A at a final concentration of 150 × 10^6 epimastigotes / mL. Next, 20 μL of T. cruzi epimastigote suspension (3 x 10^6 parasites) was added to each sample well, and then 15 μL of MitoXpress-Xtra probe (Cayman Chemicals) was added (final assay volume of 60 μL). Probe phosphorescence is quenched in the presence of oxygen and is inversely proportional to the amount of oxygen present in the solution. HS mineral oil (20 μL, Cayman Chemicals) was added to wells to prevent oxygen exchange between the assay buffer and air. Blank wells containing assay buffer without parasites, corresponding compound, and mineral oil were prepared in parallel and values were subtracted from sample values to specifically measure changes in oxygen concentration caused by parasite respiration. All sample and blank wells were prepared in duplicate. The assay plate was transferred to a Gemini XPS fluorescence plate reader (Molecular Devices) and read at 3 minute intervals at excitation and emission wavelengths of 380 nm and 650 nm, respectively, for 30 minutes at 37°C. The slope for the linear portion of time course of fluorescence increase (rate of oxygen consumption) was calculated after subtraction of blank well values. Obtained slope values were normalized to the slope obtained for 0.2% DMSO, and plotted against the corresponding compound concentration for half maximal inhibitory concentration (IC50) value determination.

[3] = system: T. cruzi mutant complex III (cytochrome b L197F); experiment: T. cruzi complex III activity (decylubiquinol / cytochrome c reaction), GNF7686-resistant; assay type: biochemical, Trypanosoma cruzi; details: digitonin-permeabilized epimastigotes
Experimental: T. cruzi epimastigotes ([…], density of 5 × 10^7 parasites / mL) were harvested by centrifugation (800 × g for 5 minutes at 4°C) and resuspended at 10 mg / mL of protein in buffer A containing 0.1 mg digitonin / mg protein. The parasites were then incubated with the detergent for 10 minutes at 26°C. The pellet fraction was collected by centrifugation (13,000 × g for 5 min at 4°C) and immediately used in the complex III assay.
Complex III activity was monitored using a coupled decylubiquinol / cytochrome c reaction. Decylubiquinone was first reduced to decylubiquinol as described. […] The reduction of cytochrome c was monitored at 550 nm using the SpectraMax Plus384 absorbance microplate reader. Blank samples containing all components excluding decylubiquinol were processed in parallel and absorbance values were subtracted from sample absorbance values to specifically measure […] reduction of cytochrome c. All sample and blank wells were prepared in triplicate. For IC50 determination, the slope of the linear portion of the corrected respiration trace was determined, and normalized to the slope obtained for 0.2% DMSO condition.

[4] = system: rat skeletal muscle mitochondria respiration; experiment: Respiration of isolated rat skeletal muscle mitochondria (oxygen consumption); assay type: biochemical; details: mitochondria from rat skeletal muscle
Experimental: as §1, with “mL.” for “mL. Next, 20 μL of T. cruzi epimastigote suspension (3 x 10^6 parasites) was added to each sample well, and then 15 μL of MitoXpress-Xtra probe (Cayman Chemicals) was added (final assay volume of 60 μL). Probe phosphorescence is quenched in the presence of oxygen and is inversely proportional to the amount of oxygen present in the solution.”
Sprague Dawley rats were euthanized and skeletal muscle (from hind legs) was removed and stored in CP1 buffer (0.1 M KCl, 0.05 M Tris, 2 mM EGTA, pH 7.4 at 4°C) on ice. […] Respiration in isolated rat mitochondria was measured using the same protocol as described for T. cruzi epimastigotes using 150 μg protein / sample.

[5] = system: T. cruzi intracellular amastigotes (wild-type); experiment: T. cruzi intracellular amastigote efficacy assay in NIH/3T3 cells, wild-type strain; assay type: cell-based; details: Trypanosoma cruzi, NIH3T3, intracellular amastigotes in NIH/3T3, 48-hour treatment, read-out: Amastigote EC50, WT
Experimental: (§2) To determine compound efficacy on T. cruzi intracellular amastigotes, NIH/3T3 cells were seeded (1,000 cells / well, 40 μL) into microscopy-grade, clear bottom, 384-well plates (Greiner) in RPMI-1640 medium containing 5% heat-inactivated fetal bovine serum and 100 IU penicillin / 100 μg streptomycin per mL. Plates were incubated overnight at 37°C / 5% CO2. Cells were infected with T. cruzi trypomastigotes at a multiplicity of infection (MOI) of 10 for the wild-type strain, and 20 for the GNF7686-resistant mutant strain. After six hours of infection (at 37°C / 5% CO2), the plates were washed by aspirating the medium and replacing with fresh screening medium to remove remaining extracellular trypomastigotes. The plates with infected cells were incubated overnight (37°C / 5% CO2) and compounds dissolved in DMSO were added to plate wells on the following day (0.2% DMSO final concentration). […] The plates were then scanned using the Evotec Opera High Content Screening System (Perkin Elmer) and amastigote proliferation was assessed by counting parasites within the 3T3 cells using CellProfiler version 2.1.0 cell image analysis software. […]

[6] = system: T. cruzi intracellular amastigotes (GNF7686-resistant, DR); experiment: T. cruzi intracellular amastigote efficacy assay in NIH/3T3 cells, GNF7686-resistant strain; assay type: cell-based; details: Trypanosoma cruzi, NIH3T3, intracellular amastigotes in NIH/3T3, 48-hour treatment
Experimental: as §2

SMILES | IC50 [1] [nM] | Loss of potency on respiration, GNF7686-resistant vs wild-type [2] | IC50 [2] [nM] | Loss of potency on complex III, mutant vs wild-type [3] | IC50 ([4]; read-out: Rat mitochondrial respiration IC50) [nM] | EC50 [5] [nM] | EC50 [6] [nM] | Mammalian (rat) mitochondrial respiration: no effect on oxygen consumption up to [4] [µM]
CCCCCC[C@H]1C(=O)O[C@H](C)[C@H](NC(=O)c2cccc(NC=O)c2O)C(=O)O[C@@H](C)[C@@H]1OC(=O)CC(C)C [Antimycin A] | 40 | ~ 7 fold | 270 | ~ 100 fold | 810 | – | – | –
O=C(Cn1ccnc1[N+](=O)[O-])NCc1ccccc1 [Benznidazole] | – | – | – | – | – | 1400 ± 170 | 820 ± 130 | –
CCc1c(C)c(C#N)c2nc3ccccc3n2c1O [GNF7686] | 210 | – | 5200 | 20 fold | – | 150 ± 30 | 660 ± 120 | > 25

— publication PMC4506092, “Utilizing Chemical Genomics to Identify Cytochrome b as a Novel Drug Target for Chagas Disease” (PLoS Pathogens, 2015)
